Assay [1] deals with Serine/threonine-protein kinase 16 (Homo sapiens) (UniProt O75716). Description: Inhibition of STK16 (unknown origin) at 1 uM by single point assay.
Assay [2] has as its target Rho-associated protein kinase 2 (Homo sapiens) (UniProt O75116). Nature of the assay: Inhibition of ROCK2 (unknown origin) at 1 uM by single point assay.
Assay [3] concerns the target Serine/threonine-protein kinase PLK1 (Homo sapiens) (UniProt P53350). Description: Inhibition of PLK1 (unknown origin) at 1 uM by single point assay.
Assay [4] has as its target Serine/threonine-protein kinase PLK2 (Homo sapiens) (UniProt Q9NYY3). Nature of the assay: Inhibition of PLK2 (unknown origin) at 1 uM by single point assay.
Assay [5] addresses Serine/threonine-protein kinase MARK2 (Homo sapiens) (UniProt Q7KZI7). Description: Inhibition of MARK2 (unknown origin) at 1 uM by single point assay.
For assay [6], the target named is Mitogen-activated protein kinase 1 (Homo sapiens) (UniProt P28482). Description: Inhibition of MAPK1 (unknown origin) at 1 uM by single point assay.
Mitogen-activated protein kinase 1 (Homo sapiens), sequence (P28482 whole entry): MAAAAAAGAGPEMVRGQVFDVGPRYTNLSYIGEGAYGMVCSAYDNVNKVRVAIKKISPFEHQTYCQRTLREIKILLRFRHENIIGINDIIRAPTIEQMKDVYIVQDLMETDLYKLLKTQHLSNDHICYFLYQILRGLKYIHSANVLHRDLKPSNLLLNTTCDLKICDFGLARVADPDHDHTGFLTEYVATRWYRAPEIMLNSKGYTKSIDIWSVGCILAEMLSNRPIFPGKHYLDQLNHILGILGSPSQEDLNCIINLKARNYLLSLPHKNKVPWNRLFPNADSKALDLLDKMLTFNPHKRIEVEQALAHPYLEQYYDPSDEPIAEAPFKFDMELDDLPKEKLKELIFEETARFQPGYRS
Assay [7] concerns the target T1, Mitogen-activated protein kinase kinase kinase 7 (Homo sapiens) (UniProt O43318).
T1 sequence (whole entry): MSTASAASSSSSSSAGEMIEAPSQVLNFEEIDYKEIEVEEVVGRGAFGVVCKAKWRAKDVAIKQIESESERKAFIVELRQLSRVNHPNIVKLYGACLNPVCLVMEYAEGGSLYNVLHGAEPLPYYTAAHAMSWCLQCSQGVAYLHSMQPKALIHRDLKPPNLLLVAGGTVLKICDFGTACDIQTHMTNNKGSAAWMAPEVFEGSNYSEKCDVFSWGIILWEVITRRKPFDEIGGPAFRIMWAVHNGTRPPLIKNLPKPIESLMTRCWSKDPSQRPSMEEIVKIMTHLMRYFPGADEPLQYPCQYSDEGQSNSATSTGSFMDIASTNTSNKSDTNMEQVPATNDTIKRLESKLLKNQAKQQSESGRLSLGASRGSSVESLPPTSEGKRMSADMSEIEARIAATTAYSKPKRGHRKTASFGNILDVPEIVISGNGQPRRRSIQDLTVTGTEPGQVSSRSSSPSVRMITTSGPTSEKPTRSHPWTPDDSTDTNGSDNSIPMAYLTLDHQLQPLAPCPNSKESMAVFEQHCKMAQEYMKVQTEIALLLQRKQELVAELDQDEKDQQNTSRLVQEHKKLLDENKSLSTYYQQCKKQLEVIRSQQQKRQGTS
Description: Inhibition of MAP3K7 (unknown origin) at 1 uM by single point assay.

For assay [8], the target named is Tyrosine-protein kinase Lck (Homo sapiens) (UniProt P06239). Nature of the assay: Inhibition of LCK (unknown origin) at 1 uM by single point assay.
The target in assay [9] is Tyrosine-protein kinase JAK1 (Homo sapiens) (UniProt P23458). Description: Inhibition of JAK1 (unknown origin) at 1 uM by single point assay.
Tyrosine-protein kinase JAK1 (Homo sapiens), sequence (P23458 whole entry): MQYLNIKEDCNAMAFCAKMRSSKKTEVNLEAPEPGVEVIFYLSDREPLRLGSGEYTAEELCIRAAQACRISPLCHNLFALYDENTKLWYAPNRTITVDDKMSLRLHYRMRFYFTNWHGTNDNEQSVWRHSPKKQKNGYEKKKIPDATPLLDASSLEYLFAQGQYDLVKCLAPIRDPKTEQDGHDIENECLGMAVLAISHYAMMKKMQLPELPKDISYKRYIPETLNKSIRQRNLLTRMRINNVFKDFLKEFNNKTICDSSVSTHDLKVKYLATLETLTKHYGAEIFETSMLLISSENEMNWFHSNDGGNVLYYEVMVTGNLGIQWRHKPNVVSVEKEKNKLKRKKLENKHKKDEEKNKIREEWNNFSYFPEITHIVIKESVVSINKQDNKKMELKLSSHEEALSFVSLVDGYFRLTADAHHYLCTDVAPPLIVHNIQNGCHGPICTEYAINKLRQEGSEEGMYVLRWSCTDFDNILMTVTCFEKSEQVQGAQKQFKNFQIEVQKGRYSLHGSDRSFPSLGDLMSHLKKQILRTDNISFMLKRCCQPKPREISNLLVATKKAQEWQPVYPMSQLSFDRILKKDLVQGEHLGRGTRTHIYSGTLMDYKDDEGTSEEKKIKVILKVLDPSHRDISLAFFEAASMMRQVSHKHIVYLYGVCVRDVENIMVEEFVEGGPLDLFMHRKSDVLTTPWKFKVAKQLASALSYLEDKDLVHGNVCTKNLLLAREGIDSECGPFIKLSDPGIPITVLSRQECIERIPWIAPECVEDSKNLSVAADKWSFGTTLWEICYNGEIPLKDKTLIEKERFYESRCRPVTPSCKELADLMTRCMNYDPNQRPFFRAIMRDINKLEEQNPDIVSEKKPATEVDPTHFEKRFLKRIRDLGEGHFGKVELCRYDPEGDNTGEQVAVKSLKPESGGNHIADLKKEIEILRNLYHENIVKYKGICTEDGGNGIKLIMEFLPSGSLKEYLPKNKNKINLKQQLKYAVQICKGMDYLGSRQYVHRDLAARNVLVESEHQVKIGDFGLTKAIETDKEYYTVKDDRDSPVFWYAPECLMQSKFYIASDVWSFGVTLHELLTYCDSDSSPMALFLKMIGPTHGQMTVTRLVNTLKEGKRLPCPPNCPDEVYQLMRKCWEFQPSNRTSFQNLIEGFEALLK
Assay [10] addresses T2, Interleukin-1 receptor-associated kinase 4 (Homo sapiens) (UniProt Q9NWZ3).
T2 sequence (whole entry): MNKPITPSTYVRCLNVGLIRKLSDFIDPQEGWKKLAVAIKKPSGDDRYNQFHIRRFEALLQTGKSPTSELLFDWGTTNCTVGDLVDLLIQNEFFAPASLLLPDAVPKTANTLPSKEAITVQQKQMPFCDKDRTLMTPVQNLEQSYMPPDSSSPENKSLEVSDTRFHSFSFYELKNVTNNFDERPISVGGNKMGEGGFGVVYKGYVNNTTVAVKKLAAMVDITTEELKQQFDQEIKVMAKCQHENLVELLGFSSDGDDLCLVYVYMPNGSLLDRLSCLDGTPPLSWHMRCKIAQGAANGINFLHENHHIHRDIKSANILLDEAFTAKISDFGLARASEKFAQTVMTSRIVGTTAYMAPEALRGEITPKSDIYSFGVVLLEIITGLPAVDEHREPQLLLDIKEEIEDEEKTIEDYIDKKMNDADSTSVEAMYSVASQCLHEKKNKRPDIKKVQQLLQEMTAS
Nature of the assay: Inhibition of IRAK4 (unknown origin) at 1 uM by single point assay.

Assay [11] deals with Insulin receptor (Homo sapiens) (UniProt P06213). Description: Inhibition of INSR (unknown origin) at 1 uM by single point assay.
Assay [12] addresses Receptor-type tyrosine-protein kinase FLT3 (Homo sapiens) (UniProt P36888). Description: Inhibition of FLT3 (unknown origin) at 1 uM by single point assay.
In assay [13] the target is Dual specificity tyrosine-phosphorylation-regulated kinase 1B (Homo sapiens) (UniProt Q9Y463). Nature of the assay: Inhibition of DYRK1B (unknown origin) at 1 uM by single point assay.
In assay [14] the target is Dual specificity protein kinase CLK1 (Homo sapiens) (UniProt P49759). Description: Inhibition of CLK1 (unknown origin) at 1 uM by single point assay.
Dual specificity protein kinase CLK1 (Homo sapiens), sequence (P49759 whole entry, looked up): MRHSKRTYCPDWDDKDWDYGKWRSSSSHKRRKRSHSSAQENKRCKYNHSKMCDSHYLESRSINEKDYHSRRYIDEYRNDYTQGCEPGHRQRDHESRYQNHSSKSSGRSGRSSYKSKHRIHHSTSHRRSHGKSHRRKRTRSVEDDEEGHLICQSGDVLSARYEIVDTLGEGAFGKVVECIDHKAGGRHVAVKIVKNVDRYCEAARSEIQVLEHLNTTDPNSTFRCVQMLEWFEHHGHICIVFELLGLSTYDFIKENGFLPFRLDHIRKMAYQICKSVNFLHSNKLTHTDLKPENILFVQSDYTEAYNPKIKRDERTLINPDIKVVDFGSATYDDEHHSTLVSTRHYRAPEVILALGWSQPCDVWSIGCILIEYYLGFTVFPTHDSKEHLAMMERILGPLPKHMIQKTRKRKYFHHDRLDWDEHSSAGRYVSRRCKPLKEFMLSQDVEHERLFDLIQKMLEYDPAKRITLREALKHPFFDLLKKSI
In assay [15] the target is T3, Serine/threonine-protein kinase Chk1 (Homo sapiens) (UniProt O14757).
T3 sequence (whole entry): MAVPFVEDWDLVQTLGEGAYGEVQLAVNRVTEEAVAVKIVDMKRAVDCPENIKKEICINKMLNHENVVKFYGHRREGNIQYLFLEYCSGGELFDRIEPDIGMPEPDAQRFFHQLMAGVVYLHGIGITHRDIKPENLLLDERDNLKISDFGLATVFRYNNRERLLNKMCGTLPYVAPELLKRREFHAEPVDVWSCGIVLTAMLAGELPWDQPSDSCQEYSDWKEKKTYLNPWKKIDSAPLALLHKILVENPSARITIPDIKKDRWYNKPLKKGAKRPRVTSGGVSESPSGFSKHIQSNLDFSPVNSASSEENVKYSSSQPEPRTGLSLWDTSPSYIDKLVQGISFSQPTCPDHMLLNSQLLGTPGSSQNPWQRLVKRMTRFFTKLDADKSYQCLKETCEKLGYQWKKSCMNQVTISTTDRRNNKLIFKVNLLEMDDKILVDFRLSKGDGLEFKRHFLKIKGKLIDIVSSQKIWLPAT
Description: Inhibition of CHK1 (unknown origin) at 1 uM by single point assay.

The target of assay [16] is Tyrosine-protein kinase ABL1 (Homo sapiens) (UniProt P00519). Nature of the assay: Inhibition of ABL1 (unknown origin) at 1 uM by single point assay.
Tyrosine-protein kinase ABL1 (Homo sapiens), sequence (P00519 whole entry): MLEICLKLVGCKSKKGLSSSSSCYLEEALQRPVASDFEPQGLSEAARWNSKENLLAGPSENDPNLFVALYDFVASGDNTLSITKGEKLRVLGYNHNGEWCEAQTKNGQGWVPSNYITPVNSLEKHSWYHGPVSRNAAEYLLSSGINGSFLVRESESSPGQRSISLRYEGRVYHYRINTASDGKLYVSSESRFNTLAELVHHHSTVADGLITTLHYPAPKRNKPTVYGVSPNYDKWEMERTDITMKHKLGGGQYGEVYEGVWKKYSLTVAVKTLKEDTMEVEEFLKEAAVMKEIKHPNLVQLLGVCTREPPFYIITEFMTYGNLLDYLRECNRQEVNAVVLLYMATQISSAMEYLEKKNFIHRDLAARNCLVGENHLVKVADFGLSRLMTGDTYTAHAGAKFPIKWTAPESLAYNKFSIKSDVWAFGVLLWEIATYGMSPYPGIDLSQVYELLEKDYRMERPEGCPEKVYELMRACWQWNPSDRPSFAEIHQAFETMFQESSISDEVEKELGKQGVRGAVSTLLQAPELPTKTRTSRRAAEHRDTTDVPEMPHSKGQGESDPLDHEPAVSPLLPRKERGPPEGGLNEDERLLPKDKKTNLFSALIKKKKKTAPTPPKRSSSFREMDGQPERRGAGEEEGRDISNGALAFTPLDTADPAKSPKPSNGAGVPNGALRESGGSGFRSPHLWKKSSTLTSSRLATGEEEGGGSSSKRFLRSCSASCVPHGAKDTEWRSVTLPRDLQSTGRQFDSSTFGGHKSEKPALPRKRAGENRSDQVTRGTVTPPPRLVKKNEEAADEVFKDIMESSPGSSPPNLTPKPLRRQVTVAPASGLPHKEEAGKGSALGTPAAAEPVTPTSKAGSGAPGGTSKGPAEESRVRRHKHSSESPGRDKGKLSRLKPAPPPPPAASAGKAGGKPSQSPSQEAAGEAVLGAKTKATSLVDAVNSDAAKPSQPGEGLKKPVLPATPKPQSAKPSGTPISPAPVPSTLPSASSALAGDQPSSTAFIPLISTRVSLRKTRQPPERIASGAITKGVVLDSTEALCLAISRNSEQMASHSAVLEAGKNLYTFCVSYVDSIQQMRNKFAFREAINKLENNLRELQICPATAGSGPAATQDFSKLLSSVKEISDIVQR
The target of assay [17] is T4, Aurora kinase A (Homo sapiens) (UniProt O14965).
T4 sequence (whole entry): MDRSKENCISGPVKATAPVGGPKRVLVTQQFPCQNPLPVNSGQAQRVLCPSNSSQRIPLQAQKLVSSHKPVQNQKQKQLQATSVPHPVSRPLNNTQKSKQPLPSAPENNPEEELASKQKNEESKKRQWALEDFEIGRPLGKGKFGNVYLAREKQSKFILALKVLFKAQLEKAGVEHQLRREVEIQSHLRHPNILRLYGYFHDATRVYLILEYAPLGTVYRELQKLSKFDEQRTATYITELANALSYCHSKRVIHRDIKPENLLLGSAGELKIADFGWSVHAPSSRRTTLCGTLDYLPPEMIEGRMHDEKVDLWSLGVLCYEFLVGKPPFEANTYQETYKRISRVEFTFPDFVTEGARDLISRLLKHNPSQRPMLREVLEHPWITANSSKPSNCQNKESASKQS
Nature of the assay: Inhibition of AURKA (unknown origin) at 1 uM by single point assay.

Serine/threonine-protein kinase 16 (Homo sapiens), sequence (O75716 whole entry): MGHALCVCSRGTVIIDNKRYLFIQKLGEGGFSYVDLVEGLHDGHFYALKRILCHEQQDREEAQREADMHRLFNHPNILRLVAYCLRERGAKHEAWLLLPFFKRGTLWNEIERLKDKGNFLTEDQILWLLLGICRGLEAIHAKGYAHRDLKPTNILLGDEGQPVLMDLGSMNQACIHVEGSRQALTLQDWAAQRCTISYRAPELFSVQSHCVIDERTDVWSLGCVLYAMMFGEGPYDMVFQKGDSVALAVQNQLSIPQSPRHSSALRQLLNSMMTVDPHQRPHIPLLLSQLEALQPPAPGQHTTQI
Serine/threonine-protein kinase PLK1 (Homo sapiens), sequence (P53350 whole entry): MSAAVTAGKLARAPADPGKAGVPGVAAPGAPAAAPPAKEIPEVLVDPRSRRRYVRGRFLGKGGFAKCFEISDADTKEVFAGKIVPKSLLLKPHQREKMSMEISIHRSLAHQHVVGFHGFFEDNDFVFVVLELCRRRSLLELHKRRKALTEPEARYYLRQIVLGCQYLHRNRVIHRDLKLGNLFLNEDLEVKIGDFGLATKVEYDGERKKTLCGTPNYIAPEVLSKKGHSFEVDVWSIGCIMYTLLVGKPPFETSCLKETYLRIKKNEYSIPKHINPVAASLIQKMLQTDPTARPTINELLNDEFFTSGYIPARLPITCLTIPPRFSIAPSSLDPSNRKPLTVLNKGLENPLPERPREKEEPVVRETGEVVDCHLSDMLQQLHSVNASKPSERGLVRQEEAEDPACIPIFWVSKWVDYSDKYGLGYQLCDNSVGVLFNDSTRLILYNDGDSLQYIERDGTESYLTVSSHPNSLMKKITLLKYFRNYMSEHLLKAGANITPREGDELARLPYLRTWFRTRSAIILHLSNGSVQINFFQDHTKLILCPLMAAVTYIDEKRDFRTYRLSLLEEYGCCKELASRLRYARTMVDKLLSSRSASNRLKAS
Serine/threonine-protein kinase MARK2 (Homo sapiens), sequence (Q7KZI7 whole entry): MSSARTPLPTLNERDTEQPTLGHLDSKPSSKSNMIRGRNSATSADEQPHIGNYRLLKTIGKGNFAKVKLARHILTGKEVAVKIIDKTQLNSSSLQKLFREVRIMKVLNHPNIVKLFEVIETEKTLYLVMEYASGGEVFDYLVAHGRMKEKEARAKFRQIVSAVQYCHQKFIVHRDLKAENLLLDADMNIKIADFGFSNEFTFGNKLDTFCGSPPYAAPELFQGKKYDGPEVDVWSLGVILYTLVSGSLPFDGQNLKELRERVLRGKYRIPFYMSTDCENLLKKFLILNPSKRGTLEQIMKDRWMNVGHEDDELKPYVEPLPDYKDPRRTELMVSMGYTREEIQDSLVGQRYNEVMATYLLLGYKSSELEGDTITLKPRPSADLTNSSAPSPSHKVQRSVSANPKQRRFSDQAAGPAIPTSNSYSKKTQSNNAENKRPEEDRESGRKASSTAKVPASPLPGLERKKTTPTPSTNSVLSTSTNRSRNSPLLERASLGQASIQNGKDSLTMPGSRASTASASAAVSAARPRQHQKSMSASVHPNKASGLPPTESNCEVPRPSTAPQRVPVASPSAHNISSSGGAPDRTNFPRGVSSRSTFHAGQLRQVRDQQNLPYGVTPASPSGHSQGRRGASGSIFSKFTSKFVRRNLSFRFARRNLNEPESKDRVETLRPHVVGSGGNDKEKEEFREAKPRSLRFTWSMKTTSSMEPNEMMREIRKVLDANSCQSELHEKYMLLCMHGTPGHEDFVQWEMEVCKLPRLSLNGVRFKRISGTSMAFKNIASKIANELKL

In the case of `CC(C)Nc1c(C#N)cnc2cc(-c3cnn(C)c3)ccc12`, the inhibition in assay [1] was 10%; in assay [2], 14%; in [3], 24%; in assay [4] it was 89%; in [5], 64%; in [6] it was -2%. The inhibition in assay [7] was 51%; in [8], 31%; in assay [9], 3%; in assay [10], 68%; in assay [11], 1%; in [12], 84%. Further, the inhibition in assay [13] is 49%; in assay [14], 27%; in assay [15], 64%; in assay [16] it was 55%; in assay [17], 89%.

Regarding `CC(C)Nc1c(C#N)cnc2cc(-c3ccc(S(C)(=O)=O)cc3)ccc12`, the inhibition came to 3% in assay [1]; 12% in assay [2]; 20% in [3]; 73% in assay [4]; 52% in assay [5]; 10% in [6]. In addition, the inhibition in assay [7] amounted to 7%; in [8], 26%; in assay [9], 16%; in [10] it was 29%; in assay [11] it was 6%; in assay [12], 16%. For the same molecule, the inhibition in assay [13] worked out at 49%; in [14], 32%; in [15] it was 36%; in [16] it was 39%; in assay [17], 71%.

In general, inhibition refers to the drop in the measured response relative to a control, in per cent.

(Values after ChEMBL document CHEMBL2346515, “Discovery of 4-alkylamino-7-aryl-3-cyanoquinoline LRRK2 kinase inhibitors” (Bioorg Med Chem Lett, 2013).)
